Targets include Aurora kinase B (Homo sapiens, UniProt Q96GD4); Myosin-14 (Homo sapiens, UniProt Q7Z406); Obg-like ATPase 1 (Homo sapiens, UniProt Q9NTK5).
In assay [1] the target is Serine/threonine-protein kinase MRCK gamma (Homo sapiens, UniProt Q6DT37).
Assay [2] deals with DnaJ homolog subfamily A member 1 (Homo sapiens, UniProt P31689).
Assay [3] deals with G protein-coupled receptor kinase 6 (Homo sapiens, UniProt P43250).
Assay [4] deals with T1, Mitogen-activated protein kinase kinase kinase kinase 2 (Homo sapiens, UniProt Q12851).
T1 sequence (Q12851 whole entry): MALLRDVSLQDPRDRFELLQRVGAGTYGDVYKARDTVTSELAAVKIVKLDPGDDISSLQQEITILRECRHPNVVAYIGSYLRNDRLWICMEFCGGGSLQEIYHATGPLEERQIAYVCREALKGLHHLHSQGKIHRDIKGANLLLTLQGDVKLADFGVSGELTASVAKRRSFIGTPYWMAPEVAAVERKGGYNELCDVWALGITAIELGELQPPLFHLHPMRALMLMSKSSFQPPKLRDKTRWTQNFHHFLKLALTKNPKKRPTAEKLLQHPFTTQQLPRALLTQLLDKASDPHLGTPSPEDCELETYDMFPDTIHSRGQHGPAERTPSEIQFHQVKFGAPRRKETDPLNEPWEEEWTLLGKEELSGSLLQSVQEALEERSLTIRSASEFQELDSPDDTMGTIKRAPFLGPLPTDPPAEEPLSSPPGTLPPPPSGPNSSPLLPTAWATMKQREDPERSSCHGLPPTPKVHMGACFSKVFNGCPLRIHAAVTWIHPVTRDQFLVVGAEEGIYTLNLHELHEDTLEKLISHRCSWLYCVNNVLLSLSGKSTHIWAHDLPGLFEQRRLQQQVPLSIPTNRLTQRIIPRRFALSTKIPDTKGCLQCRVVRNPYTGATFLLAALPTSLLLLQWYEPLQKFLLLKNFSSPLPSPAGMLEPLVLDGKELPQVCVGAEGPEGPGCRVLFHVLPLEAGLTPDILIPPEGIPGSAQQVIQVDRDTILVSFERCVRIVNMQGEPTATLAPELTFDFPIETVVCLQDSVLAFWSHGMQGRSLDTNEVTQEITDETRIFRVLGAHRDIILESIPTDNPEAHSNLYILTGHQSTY

Assay [5] deals with Mitogen-activated protein kinase 3 (Homo sapiens, UniProt P27361).
The target in assay [6] is NADH dehydrogenase [ubiquinone] 1 alpha subcomplex subunit 13 (Homo sapiens, UniProt Q9P0J0).
The target of assay [7] is T2, Serine/threonine-protein kinase NLK (Homo sapiens, UniProt Q9UBE8).
T2 sequence (Q9UBE8 whole entry): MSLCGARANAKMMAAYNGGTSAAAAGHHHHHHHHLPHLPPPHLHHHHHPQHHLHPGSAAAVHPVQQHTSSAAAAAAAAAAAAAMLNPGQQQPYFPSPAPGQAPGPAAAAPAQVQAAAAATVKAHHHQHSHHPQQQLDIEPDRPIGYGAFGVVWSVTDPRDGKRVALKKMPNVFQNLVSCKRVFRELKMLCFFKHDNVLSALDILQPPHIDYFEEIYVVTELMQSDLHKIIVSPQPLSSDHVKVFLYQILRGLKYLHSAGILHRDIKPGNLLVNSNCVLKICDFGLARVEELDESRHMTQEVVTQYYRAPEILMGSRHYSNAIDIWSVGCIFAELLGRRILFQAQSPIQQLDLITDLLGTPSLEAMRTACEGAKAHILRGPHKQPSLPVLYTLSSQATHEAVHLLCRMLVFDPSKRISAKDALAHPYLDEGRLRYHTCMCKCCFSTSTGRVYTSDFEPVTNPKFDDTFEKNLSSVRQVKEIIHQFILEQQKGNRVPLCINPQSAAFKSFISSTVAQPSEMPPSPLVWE

Assay [8] deals with T3, Ribosyldihydronicotinamide dehydrogenase [quinone] (Homo sapiens, UniProt P16083).
T3 sequence (P16083 whole entry): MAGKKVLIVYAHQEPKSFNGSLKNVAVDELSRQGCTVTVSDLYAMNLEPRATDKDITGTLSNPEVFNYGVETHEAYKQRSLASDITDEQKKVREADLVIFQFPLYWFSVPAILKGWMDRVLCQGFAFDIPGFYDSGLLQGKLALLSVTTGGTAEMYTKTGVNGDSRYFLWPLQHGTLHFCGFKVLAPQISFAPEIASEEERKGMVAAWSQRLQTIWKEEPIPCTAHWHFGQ

The target of assay [9] is Serine/threonine-protein kinase PAK 4 (Homo sapiens, UniProt O96013).
For assay [10], the target named is 26S proteasome regulatory subunit 6B (Homo sapiens, UniProt P43686).
Assay [11] addresses Protein-tyrosine kinase 2-beta (Homo sapiens, UniProt Q14289).
Assay [12] concerns the target T4, Serine/threonine-protein kinase STK11 (Homo sapiens, UniProt Q15831).
T4 sequence (Q15831 whole entry): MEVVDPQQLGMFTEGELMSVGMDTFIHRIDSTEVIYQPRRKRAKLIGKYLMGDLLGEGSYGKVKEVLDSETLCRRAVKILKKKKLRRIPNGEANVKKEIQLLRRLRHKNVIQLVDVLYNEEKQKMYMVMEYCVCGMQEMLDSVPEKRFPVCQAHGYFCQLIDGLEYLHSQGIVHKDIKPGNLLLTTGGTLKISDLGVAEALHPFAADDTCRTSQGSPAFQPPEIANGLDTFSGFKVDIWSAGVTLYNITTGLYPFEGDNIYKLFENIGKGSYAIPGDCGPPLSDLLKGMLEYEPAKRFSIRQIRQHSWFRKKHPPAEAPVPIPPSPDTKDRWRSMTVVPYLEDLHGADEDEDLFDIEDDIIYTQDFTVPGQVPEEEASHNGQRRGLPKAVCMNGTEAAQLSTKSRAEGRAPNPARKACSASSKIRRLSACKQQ

In assay [13] the target is DNA topoisomerase 2-alpha (Homo sapiens, UniProt P11388).

The source made the active and inactive calls.
Note: in the data inactive means no Kd found up to 30 µM.

Aurora kinase B, sequence (Q96GD4 whole entry): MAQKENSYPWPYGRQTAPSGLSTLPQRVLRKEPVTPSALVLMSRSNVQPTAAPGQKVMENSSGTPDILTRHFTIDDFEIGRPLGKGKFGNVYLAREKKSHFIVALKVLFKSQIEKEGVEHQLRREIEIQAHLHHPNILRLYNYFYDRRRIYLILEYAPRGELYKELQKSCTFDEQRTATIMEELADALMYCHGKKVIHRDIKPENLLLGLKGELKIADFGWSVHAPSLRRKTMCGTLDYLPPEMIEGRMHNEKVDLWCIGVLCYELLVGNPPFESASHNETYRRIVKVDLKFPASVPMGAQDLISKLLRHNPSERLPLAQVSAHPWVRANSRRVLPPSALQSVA
Protein-tyrosine kinase 2-beta, sequence (Q14289 whole entry): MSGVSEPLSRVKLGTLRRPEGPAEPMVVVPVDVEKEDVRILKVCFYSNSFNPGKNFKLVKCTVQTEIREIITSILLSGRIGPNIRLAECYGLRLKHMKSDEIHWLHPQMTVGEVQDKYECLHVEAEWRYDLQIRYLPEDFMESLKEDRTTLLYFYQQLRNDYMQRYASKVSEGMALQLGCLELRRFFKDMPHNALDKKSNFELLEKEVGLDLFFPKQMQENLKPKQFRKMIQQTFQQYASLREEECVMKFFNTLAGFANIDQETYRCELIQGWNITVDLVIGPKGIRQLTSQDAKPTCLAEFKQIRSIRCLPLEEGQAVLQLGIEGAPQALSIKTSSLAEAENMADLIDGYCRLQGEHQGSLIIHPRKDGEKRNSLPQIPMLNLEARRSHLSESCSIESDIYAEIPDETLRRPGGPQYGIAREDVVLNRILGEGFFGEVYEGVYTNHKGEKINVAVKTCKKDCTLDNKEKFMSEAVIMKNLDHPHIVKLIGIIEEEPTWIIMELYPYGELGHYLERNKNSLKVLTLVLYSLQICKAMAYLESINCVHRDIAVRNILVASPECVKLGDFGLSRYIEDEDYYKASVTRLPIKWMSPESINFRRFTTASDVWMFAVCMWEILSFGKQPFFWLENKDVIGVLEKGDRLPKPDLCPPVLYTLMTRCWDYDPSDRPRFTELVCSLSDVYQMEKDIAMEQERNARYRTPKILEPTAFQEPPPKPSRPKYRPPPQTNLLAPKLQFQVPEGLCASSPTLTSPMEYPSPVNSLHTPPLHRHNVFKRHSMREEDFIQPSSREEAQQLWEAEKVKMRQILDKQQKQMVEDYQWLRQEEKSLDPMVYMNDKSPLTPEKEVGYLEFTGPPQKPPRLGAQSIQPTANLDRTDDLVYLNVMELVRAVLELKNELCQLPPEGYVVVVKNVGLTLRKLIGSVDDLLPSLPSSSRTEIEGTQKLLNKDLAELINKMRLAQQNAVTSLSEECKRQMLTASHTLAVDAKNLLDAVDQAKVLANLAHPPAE
DNA topoisomerase 2-alpha, sequence (P11388 whole entry): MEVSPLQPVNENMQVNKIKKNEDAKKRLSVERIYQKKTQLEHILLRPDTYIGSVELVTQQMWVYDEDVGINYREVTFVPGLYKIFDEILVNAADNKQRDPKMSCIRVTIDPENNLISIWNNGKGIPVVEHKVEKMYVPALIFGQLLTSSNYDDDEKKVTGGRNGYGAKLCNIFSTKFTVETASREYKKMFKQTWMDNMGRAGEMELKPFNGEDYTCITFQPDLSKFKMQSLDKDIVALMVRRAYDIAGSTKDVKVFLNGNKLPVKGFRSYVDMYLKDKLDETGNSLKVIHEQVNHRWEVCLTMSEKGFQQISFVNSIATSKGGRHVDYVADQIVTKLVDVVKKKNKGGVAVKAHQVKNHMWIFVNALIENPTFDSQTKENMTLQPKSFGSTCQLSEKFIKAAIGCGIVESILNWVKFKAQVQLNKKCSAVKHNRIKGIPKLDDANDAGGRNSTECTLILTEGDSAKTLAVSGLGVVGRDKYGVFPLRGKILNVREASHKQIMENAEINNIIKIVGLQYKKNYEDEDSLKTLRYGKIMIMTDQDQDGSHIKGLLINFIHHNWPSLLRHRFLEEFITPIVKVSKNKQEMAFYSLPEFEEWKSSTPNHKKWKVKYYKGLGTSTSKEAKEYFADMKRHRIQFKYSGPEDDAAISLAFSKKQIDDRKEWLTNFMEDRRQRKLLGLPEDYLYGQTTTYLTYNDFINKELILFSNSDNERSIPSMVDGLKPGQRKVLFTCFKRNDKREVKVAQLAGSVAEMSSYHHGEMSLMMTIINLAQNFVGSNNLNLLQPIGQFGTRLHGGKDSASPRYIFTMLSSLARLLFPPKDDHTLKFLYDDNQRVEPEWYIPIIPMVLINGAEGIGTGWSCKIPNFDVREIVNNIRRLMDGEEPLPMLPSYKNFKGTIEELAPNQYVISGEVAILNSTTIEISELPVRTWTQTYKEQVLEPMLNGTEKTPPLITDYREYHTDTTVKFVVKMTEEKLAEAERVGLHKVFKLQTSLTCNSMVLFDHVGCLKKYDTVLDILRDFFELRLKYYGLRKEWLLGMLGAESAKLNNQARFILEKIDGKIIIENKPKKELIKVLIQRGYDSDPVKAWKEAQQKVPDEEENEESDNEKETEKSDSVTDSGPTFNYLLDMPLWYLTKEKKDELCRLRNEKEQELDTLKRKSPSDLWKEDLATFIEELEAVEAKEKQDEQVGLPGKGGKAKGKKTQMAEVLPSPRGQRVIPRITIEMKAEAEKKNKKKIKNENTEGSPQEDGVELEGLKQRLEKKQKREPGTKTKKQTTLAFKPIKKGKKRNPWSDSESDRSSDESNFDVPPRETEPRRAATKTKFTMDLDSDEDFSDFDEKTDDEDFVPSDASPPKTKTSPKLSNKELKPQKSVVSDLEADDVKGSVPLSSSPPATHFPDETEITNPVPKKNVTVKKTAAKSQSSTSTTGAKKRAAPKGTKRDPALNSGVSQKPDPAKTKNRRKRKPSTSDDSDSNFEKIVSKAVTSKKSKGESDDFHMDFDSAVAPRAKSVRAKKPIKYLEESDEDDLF
Mitogen-activated protein kinase 3, sequence (P27361 whole entry): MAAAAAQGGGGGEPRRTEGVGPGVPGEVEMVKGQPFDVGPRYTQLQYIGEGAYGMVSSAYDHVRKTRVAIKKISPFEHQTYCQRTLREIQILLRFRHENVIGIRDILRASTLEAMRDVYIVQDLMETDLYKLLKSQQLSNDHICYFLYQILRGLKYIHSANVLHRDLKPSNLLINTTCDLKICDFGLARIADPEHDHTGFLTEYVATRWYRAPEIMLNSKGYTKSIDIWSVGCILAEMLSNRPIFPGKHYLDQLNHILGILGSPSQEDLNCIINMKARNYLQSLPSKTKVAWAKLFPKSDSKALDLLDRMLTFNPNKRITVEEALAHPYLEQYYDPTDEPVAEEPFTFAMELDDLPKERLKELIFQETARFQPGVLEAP
Serine/threonine-protein kinase MRCK gamma, sequence (Q6DT37 whole entry): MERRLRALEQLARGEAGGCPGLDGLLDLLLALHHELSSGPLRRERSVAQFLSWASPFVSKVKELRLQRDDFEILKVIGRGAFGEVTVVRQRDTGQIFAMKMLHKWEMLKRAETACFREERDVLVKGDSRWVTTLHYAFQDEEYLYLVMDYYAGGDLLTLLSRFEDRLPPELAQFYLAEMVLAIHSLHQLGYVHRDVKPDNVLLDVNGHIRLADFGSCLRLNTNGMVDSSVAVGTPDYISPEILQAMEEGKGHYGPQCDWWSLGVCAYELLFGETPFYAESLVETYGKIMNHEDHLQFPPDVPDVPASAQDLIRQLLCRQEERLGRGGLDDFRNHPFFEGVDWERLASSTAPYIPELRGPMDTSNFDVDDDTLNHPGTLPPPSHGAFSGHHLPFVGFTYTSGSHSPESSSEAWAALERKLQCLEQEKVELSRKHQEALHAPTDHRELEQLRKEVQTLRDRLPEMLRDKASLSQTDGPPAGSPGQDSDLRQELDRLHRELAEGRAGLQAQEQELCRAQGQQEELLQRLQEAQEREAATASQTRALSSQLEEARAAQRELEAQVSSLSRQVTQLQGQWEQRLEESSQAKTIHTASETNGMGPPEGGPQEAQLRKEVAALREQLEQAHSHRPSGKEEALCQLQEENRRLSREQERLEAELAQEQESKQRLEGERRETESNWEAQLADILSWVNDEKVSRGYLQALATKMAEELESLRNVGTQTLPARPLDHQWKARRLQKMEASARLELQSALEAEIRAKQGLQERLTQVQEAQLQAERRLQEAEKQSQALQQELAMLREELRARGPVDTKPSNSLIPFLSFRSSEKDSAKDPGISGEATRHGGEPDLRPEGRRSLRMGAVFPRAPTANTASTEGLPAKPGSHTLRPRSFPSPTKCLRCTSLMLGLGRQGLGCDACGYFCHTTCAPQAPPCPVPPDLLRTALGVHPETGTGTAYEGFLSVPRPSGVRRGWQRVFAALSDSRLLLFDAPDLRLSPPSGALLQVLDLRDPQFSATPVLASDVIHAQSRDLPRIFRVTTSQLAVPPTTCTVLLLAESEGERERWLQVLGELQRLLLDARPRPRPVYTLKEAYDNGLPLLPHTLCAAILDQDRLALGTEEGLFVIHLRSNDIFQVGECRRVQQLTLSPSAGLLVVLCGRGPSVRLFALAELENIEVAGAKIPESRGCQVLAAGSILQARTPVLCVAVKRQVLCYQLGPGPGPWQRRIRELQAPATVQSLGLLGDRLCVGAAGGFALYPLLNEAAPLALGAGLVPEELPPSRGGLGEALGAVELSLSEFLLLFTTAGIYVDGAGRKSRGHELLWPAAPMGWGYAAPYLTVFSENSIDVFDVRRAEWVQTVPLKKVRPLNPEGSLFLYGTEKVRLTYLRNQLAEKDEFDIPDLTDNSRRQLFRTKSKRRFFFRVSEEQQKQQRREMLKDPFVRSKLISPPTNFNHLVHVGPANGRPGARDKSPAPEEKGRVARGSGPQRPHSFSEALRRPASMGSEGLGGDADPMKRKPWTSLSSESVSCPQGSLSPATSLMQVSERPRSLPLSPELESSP
NADH dehydrogenase [ubiquinone] 1 alpha subcomplex subunit 13, sequence (Q9P0J0 whole entry, one chain of several): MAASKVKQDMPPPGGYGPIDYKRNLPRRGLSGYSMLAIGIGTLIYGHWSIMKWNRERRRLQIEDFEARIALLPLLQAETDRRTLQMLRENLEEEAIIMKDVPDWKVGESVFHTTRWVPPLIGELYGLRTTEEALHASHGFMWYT

For `Cc1nc2cc(-c3nn(C(C)C)c4ncnc(N)c34)ccc2o1`, the Kd was > 30 µM (inactive) at Aurora kinase B; > 30 µM (inactive) in assay [1]; > 30 µM (inactive) in assay [2]; > 30 µM (inactive) in [3]; 15.9 µM (active) in assay [4]; > 30 µM (inactive) in assay [5]. The Kd is > 30 µM (inactive) at Myosin-14; > 30 µM (inactive) in assay [6]; 0.449 µM (active) in [7]; > 30 µM (inactive) in assay [8]; > 30 µM (inactive) at Obg-like ATPase 1; > 30 µM (inactive) in [9]. In addition, the Kd in assay [10], in assay [11], in [12] and in assay [13] was > 30 µM (inactive) in each case.

As to `C=CC(=O)Nc1cc2c(Nc3ccc(F)c(Cl)c3)ncnc2cc1C#CC(C)(C)N1CCN(C)CC1` [AV-412 FREE BASE], the Kd (on Aurora kinase B; in [1]; in [2]; in assay [3]; in [4]; in [5]) was > 30 µM (inactive) in each case. The Kd (in [6]; in [7]; in assay [8]; at Obg-like ATPase 1; in assay [9]; in assay [10]) was > 30 µM (inactive) throughout. The Kd in assay [11], in assay [12] and in [13] was > 30 µM (inactive) in each case.

On to `Cc1cc(C(=O)NOCCO)c(Nc2ccc(I)cc2F)n(C)c1=O` [AZD-8330], for which the Kd (at Aurora kinase B; in assay [1]; in assay [2]; in assay [3]; in assay [4]; in [5]) was > 30 µM (inactive) in each case. The Kd (at Myosin-14; in [6]; in assay [7]; in assay [8]; at Obg-like ATPase 1; in assay [9]) was > 30 µM (inactive) in each case. The Kd in assay [10], in assay [11], in assay [12] and in assay [13] was > 30 µM (inactive) throughout.

Regarding `COc1ccc(S(=O)(=O)N(C(C)=O)c2ccccc2/C=C/c2cc[n+]([O-])cc2)cc1` [HMN-214], the Kd (on Aurora kinase B; in assay [1]; in assay [2]; in [3]; in [4]; in assay [5]) was > 30 µM (inactive) throughout. The Kd (in [6]; in assay [7]; in [8]; on Obg-like ATPase 1; in assay [9]; in [10]) was > 30 µM (inactive) in each case. The Kd in assay [11], in assay [12] and in assay [13] was > 30 µM (inactive) in each case.

Take `CO[C@H]1C[C@@H]2CC[C@@H](C)[C@@](O)(O2)C(=O)C(=O)N2CCCC[C@H]2C(=O)O[C@H]([C@H](C)C[C@@H]2CC[C@@H](O)[C@H](OC)C2)CC(=O)[C@H](C)/C=C(\C)[C@@H](O)[C@@H](OC)C(=O)[C@H](C)C[C@H](C)/C=C/C=C/C=C/1C` [SIROLIMUS]: the Kd (on Aurora kinase B; in [1]; in assay [2]; in assay [3]; in assay [4]; in assay [5]) was > 30 µM (inactive) each time. Further, the Kd (on Myosin-14; in [7]; in assay [8]; at Obg-like ATPase 1; in assay [9]; in [10]) was > 30 µM (inactive) throughout. Moreover, the Kd in [11], in [12] and in assay [13] was > 30 µM (inactive) each time.

Values taken from ChEMBL document CHEMBL3991601, “The target landscape of clinical kinase drugs” (Science, 2017).
